Reference: patent US4826845A, “3(2H)-pyridazinones and pharmaceutical compositions thereof” (Richter Gedeon Vegyeszeti Gyar T.R., priority 1985, dated 1989)
Counter-ions that a name gives are not always drawn. Like-named read-outs stand apart in the source and are kept apart here.

What was measured:
[1] = test system: postsynaptic alpha1 receptor; assay: Kinetic analysis on rabbit aorta strip preparation: postsynaptic alpha1 receptor antagonism; assay type: cell-based
Protocol: Male rabbits with a body-weight of 3 to 3.5 kg were used for these experiments. […] A dose response curve was plotted by using norepinephrine and a dose selected from the steepest interval of the curve was added repeatedly to the bath until obtaining equal responses. Then, the compound to be tested was added and after 5 minutes, the dose series of norepinephrine was repeated. The extent of the inhibition was expressed as percentage.

conscious SH rats [2] = assay: Antihypertensive effect on conscious, spontaneously hypertensive (SH) rats after oral administration; assay type: in vivo, rat
Excerpt: The systolic blood pressure was indirectly measured by the tail-cuff method. The compounds to be tested were introduced orally (p.o.) to the animals. The blood pressure measurements were made by using a 5-channel automatized equipment.

anaesthetized dogs = assay: Hypotensive and heart rate effects on anaesthetized dogs after intravenous or intraduodenal administration; assay type: in vivo, Beagle dog
Protocol: (§1) Beagle dogs of both sexes were anaesthetized by the intravenous administration of 40 mg/kg of sodium pentobarbital. A cannula was introduced to the femoral artery and vein each on one side for the intravenous administration of the compounds to be tested as well as for measuring the blood pressure.
In an other series of these experiments, the substances were administered through a duodenal tube. Similarly to the experiments carried out on cats, the systemic arterial blood pressure was measured by using an electromanometer and the cardiotachometer was triggered by the heart rate wave sign. […]

conscious SH rats [3] = assay: Antihypertensive effect on conscious SH rats after acute oral treatment; assay type: in vivo, rat
Excerpt: (§2) These experiments were accomplished on conscious spontaneously hypertensive (SH) and renally hypertensive rats.
(§3) The systolic blood pressure and heart rate of the animals were indirectly measured by using the tail-cuff method by means of a 5- channel automatized equipment.

SH rats = assay: Subacute treatment of SH rats; assay type: in vivo, rat
Protocol: as §3
The subacute experiments were carried out on SH rats by administering daily twice a 3 mg/kg intraperitoneal dose for 14 days.

[4] = test system: conscious renal hypertensive rats; assay: Antihypertensive effect on conscious renal hypertensive rats after acute oral treatment; assay type: in vivo, rat
Excerpt: as §2, §3

[5] = biological target: T1, potential-mediated calcium channel (Rattus norvegicus, UniProt P22002); assay: Calcium-antagonism on isolated portal vein: potential-mediated calcium channel; assay type: cell-based; conditions: rat portal vein, 80 millimoles KCl, 37° C.; read-out: Inhibition of the calcium channel, potential-mediated, IC50
T1 construct: from tissue; host or cells: isolated rat portal vein
T1 sequence (P22002 whole entry): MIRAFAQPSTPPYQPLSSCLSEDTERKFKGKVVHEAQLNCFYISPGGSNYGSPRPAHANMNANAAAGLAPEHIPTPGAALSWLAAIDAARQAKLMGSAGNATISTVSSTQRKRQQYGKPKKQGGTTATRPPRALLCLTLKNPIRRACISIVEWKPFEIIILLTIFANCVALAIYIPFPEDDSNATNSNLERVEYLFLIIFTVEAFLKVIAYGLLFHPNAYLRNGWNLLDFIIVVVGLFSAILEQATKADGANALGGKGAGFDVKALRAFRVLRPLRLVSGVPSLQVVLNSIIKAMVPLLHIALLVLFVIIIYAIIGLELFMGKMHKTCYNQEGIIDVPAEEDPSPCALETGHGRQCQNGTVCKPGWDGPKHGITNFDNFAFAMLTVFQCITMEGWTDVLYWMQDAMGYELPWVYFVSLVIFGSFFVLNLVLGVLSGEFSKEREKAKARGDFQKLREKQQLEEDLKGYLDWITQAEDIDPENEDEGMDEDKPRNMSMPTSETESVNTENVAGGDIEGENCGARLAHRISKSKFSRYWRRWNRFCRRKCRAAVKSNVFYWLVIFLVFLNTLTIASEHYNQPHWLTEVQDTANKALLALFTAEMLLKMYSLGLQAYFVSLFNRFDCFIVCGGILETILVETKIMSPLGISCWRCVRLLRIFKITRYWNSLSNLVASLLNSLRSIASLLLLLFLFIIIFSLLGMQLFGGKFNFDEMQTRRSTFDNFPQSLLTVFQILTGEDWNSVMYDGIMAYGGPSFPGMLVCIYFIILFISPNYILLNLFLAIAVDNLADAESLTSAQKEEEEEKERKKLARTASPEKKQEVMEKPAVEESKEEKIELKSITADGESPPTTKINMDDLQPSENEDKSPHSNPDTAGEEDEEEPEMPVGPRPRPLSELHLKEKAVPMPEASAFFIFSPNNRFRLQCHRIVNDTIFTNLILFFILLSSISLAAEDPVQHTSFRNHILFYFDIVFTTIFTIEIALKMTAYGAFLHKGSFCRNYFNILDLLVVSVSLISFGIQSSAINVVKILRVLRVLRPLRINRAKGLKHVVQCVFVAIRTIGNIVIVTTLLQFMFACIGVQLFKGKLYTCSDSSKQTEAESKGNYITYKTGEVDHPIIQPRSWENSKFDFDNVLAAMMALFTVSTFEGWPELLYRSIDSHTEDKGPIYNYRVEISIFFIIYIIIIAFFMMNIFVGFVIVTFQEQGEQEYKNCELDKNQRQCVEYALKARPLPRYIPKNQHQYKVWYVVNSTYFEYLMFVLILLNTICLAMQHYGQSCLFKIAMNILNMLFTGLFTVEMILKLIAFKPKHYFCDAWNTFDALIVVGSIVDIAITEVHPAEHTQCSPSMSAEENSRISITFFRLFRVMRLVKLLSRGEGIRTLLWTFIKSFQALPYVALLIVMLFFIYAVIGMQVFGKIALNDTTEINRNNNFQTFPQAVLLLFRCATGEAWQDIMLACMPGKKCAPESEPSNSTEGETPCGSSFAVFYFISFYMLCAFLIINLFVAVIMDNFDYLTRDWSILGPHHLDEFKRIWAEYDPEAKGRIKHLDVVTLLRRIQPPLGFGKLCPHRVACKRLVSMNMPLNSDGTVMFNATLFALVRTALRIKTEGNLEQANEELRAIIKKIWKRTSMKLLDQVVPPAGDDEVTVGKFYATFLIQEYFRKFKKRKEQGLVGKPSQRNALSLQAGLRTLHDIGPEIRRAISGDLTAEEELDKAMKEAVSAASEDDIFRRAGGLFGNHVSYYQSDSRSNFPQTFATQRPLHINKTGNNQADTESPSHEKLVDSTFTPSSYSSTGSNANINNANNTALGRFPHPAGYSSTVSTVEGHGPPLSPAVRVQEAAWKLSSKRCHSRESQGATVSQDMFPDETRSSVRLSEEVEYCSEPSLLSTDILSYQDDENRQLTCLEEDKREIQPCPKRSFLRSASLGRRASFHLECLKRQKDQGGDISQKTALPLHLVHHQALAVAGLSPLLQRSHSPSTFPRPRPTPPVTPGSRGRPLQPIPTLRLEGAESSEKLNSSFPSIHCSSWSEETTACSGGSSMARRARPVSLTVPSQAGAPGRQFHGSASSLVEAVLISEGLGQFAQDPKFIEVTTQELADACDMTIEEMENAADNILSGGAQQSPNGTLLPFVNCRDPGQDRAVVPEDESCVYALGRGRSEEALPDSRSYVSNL
T1 sequence (P54290 25-944 partner limits assumed): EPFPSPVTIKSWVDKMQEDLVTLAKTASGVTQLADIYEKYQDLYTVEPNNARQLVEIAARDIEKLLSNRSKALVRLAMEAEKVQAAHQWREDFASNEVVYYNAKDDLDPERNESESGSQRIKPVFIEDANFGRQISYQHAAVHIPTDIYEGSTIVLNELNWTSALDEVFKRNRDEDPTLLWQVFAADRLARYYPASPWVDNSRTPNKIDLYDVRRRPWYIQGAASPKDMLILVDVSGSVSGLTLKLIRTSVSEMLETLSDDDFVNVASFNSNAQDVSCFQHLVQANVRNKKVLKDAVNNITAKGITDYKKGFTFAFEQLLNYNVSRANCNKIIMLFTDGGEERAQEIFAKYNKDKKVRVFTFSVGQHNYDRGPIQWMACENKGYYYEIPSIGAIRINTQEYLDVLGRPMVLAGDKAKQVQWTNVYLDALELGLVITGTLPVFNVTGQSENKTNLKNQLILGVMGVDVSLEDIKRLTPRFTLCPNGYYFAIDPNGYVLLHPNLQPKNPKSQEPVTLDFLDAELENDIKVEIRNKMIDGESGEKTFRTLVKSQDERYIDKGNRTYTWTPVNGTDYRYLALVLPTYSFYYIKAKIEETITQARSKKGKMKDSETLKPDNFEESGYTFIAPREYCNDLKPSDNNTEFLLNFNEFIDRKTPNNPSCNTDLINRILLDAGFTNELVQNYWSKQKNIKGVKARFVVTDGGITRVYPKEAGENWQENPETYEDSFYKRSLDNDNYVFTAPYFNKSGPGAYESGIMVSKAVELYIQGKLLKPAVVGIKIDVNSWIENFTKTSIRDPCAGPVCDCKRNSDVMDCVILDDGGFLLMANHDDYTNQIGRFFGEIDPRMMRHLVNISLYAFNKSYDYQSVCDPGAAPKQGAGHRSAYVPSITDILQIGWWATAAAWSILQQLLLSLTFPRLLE
T1 sequence (P54290 945-1091 partner limits assumed): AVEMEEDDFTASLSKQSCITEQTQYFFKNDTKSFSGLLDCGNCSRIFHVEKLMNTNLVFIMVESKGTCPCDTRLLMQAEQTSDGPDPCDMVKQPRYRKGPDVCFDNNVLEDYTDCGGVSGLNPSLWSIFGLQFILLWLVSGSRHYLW
Protocol: (§4) The calcium-antagonism of the compounds of the invention was studied on an isolated vessel preparation based on the work of M. Fiol de Cuneo et al. [Arch. Int. Pharmacodyn.
(§5) Male CFY rats with a body-weight of 150 to 200 g were bled by decapitation and the portal vein was immediately prepared starting from the hepatic portal. The vessel was longitudinally incised, bound to a transducer registering the contractions and incubated under a tension of 1 g at 37° C. in a calcium-free Krebs-Ringer bicarbonate solution aerated with carbogen. After an equilibration lasting for 30 minutes, the functioning of the receptor-mediated and the K^+ -depolarisation-mediated calcium channels, respectively, were investigated.
For investigating the potential-mediated calcium channel, the vein placed in the calcium-free Krebs-Ringer solution was washed by adding and then by removing 80 millimoles of potassium chloride while maintaining the isotania until no contraction appeared on repeatedly adding potassium chloride.
(§6) All measurements were carried out at 37° C. while bubbling through carbogen.

anaesthetized cats = assay: Measurement of the hypotensive effect on anaesthetized cats (i.v. screening); assay type: in vivo, cat
Protocol: A tube was introduced into the trachea of cats anaesthetized by the intraperitoneal (i.p.) administration of 35 mg/kg of sodium pentobarbital whereby the spontaneous breathing was supported. On the one side of the animals, the femoral artery and vein were exposed and a polyethylene cannula was introduced in both vessels each. The substances to be tested were administered through the venous cannula. The mean arterial blood pressure was measured by connecting the arterial cannula with a Statham P 23 Db pressure transducer and electromanometer.
As a first screening dose, 5 mg/kg of the compounds to be tested were intravenously (i.v.) administered.

renal artery = assay: Renal arterial vascular resistance in anaesthetized dogs; assay type: in vivo, Beagle dog
Protocol: as §1
In an other series of these experiments, the substances were administered through a duodenal tube. Similarly to the experiments carried out on cats, the systemic arterial blood pressure was measured by using an electromanometer and the cardiotachometer was triggered by the heart rate wave sign.
The renal artery on one side was exposed retroperitoneally and fitted with an electromagnetic flow-meter head for measuring the blood flow of the renal arterial vascular bed and for determining the local vascular resistance.

[6] = test system: pre- and postsynaptic alpha receptors; assay: Action on the pre- and postsynaptic adrenergic alpha receptors on the stimulated mouse vas deferens; assay type: cell-based
Protocol: The method of Hughes et al. [Brit. J. Phamacol. 51, pp. 139-140P (1975)] was used. The preparations suspended in a modified Krebs solution at 31° C. were excited by the field stimulation method [rectangular paired impulses with 1 msec interval, supramaximal potential (70 to 75 V=8 to 9 V/cm) and 100 msec impulse interval, pairs repeated in each 10 sec]. After stimulation, norepinephrine (NE) was dropped into the organ bath and a dose-response curve was taken up. Thus, the effect of both the endogenous norepinephrine liberated by stimulation and the exogenous norepinephrine could be studied before and after adding the substance to be tested.

[7] = test system: adrenergic receptor-mediated calcium channel; assay: Calcium-antagonism on isolated portal vein: adrenergic receptor-mediated calcium channel; assay type: cell-based; conditions: rat portal vein, 1×10^-5 mole norepinephrine, 37° C.; read-out: Inhibition of the calcium channel, adrenergic receptor-mediated, IC50
Protocol: as §4, §5, §6

Acute toxicity in rats = conditions: rat, in vivo
Excerpt: Male and female CFY rats and mice were used.

With `O=c1cccnn1CCCNCC1COc2ccccc2O1` (centres unmarked) [Example 3 (or 12), 2-[3-(benzo[1,4]dioxan-2-yl-methylamino)-1-propyl]-3(2H)-pyridazinone hydrochloride] as the molecule, how does the pA2 ([1]; negative logarithm of the molar antagonist concentration inhibiting the agonist to 50%, norepinephrine agonist, 5 min) read?
Its pA2 is 7.26.

What about the “Slope of the curve” value ([1]; rabbit aorta, norepinephrine) of the same molecule?
The value was -1.26.

And the “Decrease in the systolic blood pressure” value (conscious SH rats [2]; 6.25 mg/kg p.o.)?
The value was -18%.

And the “Decrease in the systolic blood pressure” value (conscious SH rats [2]; 12.5 mg/kg p.o.)?
The value was -25%.

And the “Decrease in the systolic blood pressure” value (conscious SH rats [2]; 25 mg/kg p.o.)?
The value was -32%.

What about the “decrease in the systemic arterial blood pressure” value (anaesthetized dogs; 1.0 mg/kg i.v.) of the same molecule?
Its value is 50%.

What about the “half-life of the effect” value (anaesthetized dogs; 1.0 mg/kg i.v.) of the same molecule?
Its value is 30 min.

What about the “heart rate effect (in words)” value (anaesthetized dogs; 1.0 mg/kg i.v.) of the same molecule?
The value was “bradycardia was observed during the first 5 minutes, then the alteration was not significant”.

And the “decay of the hypotensive effect (in words)” value (anaesthetized dogs; 1.0 mg/kg intraduodenal)?
Its value is “only halved at the end of the first hour”.

And the “decrease in the systemic arterial blood pressure” value (anaesthetized dogs; 1.0 mg/kg intraduodenal)?
The value was 30%.

What about the tachycardia (anaesthetized dogs; 1.0 mg/kg intraduodenal) of the same molecule?
Its tachycardia is “about 20%”.

What about the “time maximum effect remained constant” value (anaesthetized dogs; 1.0 mg/kg intraduodenal) of the same molecule?
Its value is 30 min.

And the “time of maximum effect” value (anaesthetized dogs; 1.0 mg/kg intraduodenal)?
Its value is 5 min.

What about the “hypotensive activity compared with verapamil (in words)” value (anaesthetized dogs; any of the two routes) of the same molecule?
The value was “higher than that of verapamil”.

What about the “hypotensive activity compared with prazosine (in words)” value (anaesthetized dogs; intraduodenal) of the same molecule?
The value was “reached that of prazosine”.

What about the “hypotensive effect (in words)” value (anaesthetized dogs; intravenous and intraduodenal) of the same molecule?
The value was “strong hypotensive effect”.

What about the “hypotension up to the 5th hour” value (conscious SH rats [3]; SH rats, 6.25 mg/kg p.o., up to 5th hour) of the same molecule?
Its value is 16%.

And the antihypertensive effect (conscious SH rats [3]; SH rats, 6.25 mg/kg p.o., within one hour)?
Its antihypertensive effect is 29%.

And the “dose dependence of level and duration of the antihypertensive effect (in words)” value (conscious SH rats [3]; SH rats, 6.25, 12.5 or […] p.o.)?
Its value is “increased by increasing the doses”.

What about the “heart rate alteration (in words)” value (conscious SH rats [3]; SH rats, p.o.) of the same molecule?
Its value is “no significant heart rate alteration”.

And the “effect on the following days; tachyphylaxia (in words)” value (SH rats; 3 mg/kg i.p. twice daily for 14 days)?
The value was “not altered on the following days of treatment. No signs of tachyphylaxia were observed”.

What about the maximum antihypertensive effect (SH rats; 3 mg/kg i.p. twice daily, 10th day) of the same molecule?
Its maximum antihypertensive effect is 22%.

What about the maximum antihypertensive effect ([4]; 3.125 mg/kg p.o.) of the same molecule?
Its maximum antihypertensive effect is 16%.

And the maximum antihypertensive effect ([4]; 12.5 mg/kg p.o.)?
Its maximum antihypertensive effect is 24%.

What about the “antihypertensive effect in the 8th hour (in words)” value ([4]; 25 mg/kg p.o., 8th hour) of the same molecule?
Its value is “significant even in the 8th hour”.

What about the tachycardia ([4]; p.o.) of the same molecule?
The tachycardia was 18%.

And the “time of disappearance of tachycardia (in words)” value ([4]; p.o.)?
The value was “disappeared in the 2nd to 3rd hours after the treatment”.

And the IC50 [5]?
The IC50 was 500 nM.

What about the “Mean arterial pressure decrease” value (anaesthetized cats; anaesthetized cats, 5.0 mg/kg i.v.) of the same molecule?
Its value is -95 Hgmm.

What about the “blood pressure lowering action (in words)” value (anaesthetized cats; intravenous, summary of Table 1) of the same molecule?
Its value is “particularly expressed”.

What about the “peripheral vasodilatory action in the renal vascular bed compared with prazosine (in words)” value (renal artery) of the same molecule?
Its value is “reached or eventually surpassed the activity of prazosine”.

What about the “peripheral vasodilatory action in the renal vascular bed compared with verapamil (in words)” value (renal artery) of the same molecule?
The value was “stronger effects than verapamil”.

What about the “decrease in resistance of the renal artery” value (renal artery; 1 mg/kg i.v.) of the same molecule?
Its value is “about 40%”.

And the “decrease in resistance of the renal artery” value (renal artery; 1.0 mg/kg intraduodenal)?
Its value is “about 40%”.

What about the “Inhibition of the stimulation” value ([6]; concentration 10^-7 mole) of the same molecule?
The value was 0%.

And the “Inhibition of the stimulation” value ([6]; concentration 10^-8 mole)?
The value was 0%.

What about the IC50 [7] of the same molecule?
Its IC50 is 400 nM.

What about the LD50 at 336 h (Acute toxicity in rats; ip, female, i.p., read-out: LD50 i.p.) of the same molecule?
Its LD50 at 336 h is 97.8 mg/kg.

And the LD50 at 336 h (Acute toxicity in rats; ip, male, i.p., read-out: LD50 i.p.)?
The LD50 at 336 h was 116 mg/kg.

And the LD50 at 336 h (Acute toxicity in rats; po, female, p.o., read-out: LD50 p.o.)?
The LD50 at 336 h was 400 mg/kg.

And the LD50 at 336 h (Acute toxicity in rats; po, male, p.o., read-out: LD50 p.o.)?
Its LD50 at 336 h is 600 mg/kg.
